Experimental data taken from patent publication US20210030654A1, “ANTIOXIDANT COMPLEX AND COMPOSITION FOR FORMING SAME” (priority 2018, published 2021).

Legend:
Human red blood cells = test: CAP-e bioassay (cellular antioxidant protection assay of red blood cells); type: cell-based; conditions: AAPH-induced oxidative damage, FIGS. 3-5
Experimental: Cellular antioxidant protection (CAP-e) assay of red blood cells was used to evaluate the capacity of antioxidant complexes to protect cells from oxidative stress after the antioxidant complexes enter the cells.
Human red blood cells were treated for 20 minutes using the antioxidant complex serially diluted in physiological saline. During this incubation period, the antioxidant complexes that may pass through a cell membrane may enter the cells. After exposure of the red blood cells to the antioxidant complex which was tested twice for each dose of the antioxidant complex, the red blood cells were washed twice with PBS to remove the antioxidant complex that was not absorbed by the cells.
The red blood cells were loaded with an indicator dye DCF-DA that becomes fluorescent when oxidized, and then a peroxyl free radical generator AAPH was added thereto to induce oxidative damage to the cells. A relative fluorescence intensity of each cell culture was measured at 488 nanometers using a Tecan Spectrafluor plate reader (Tecan, Männedorf, Switzerland). A reference for oxidation at the cellular level was defined based on a low fluorescence intensity of untreated control cells (cells treated with PBS but not treated with a test product or AAPH). A positive control for cellular oxidative damage was defined as red blood cells exposed to AAPH alone under the absence of the antioxidant complex. […]

Solubility = type: physicochemical; conditions: powder introduced into physiological saline
Description: The simple mixture is not preferable for a preparation method of the antioxidant complex according to the inventive concept.

Compound: O=C1c2c(O)cc(O)cc2O[C@H](c2ccc(O)c(O)c2)[C@H]1O [dihydroquercetin powder, dihydroquercetin]
- intracellular antioxidant capacity / cell protective capacity in CAP-e analysis (Human red blood cells): did not exhibit the intracellular antioxidant capacity
- solubility in physiological saline (Solubility): almost completely insoluble
